{"source": "ChEMBL document CHEMBL1152164", "about": "“The first X-ray crystal structure of the glucocorticoid receptor bound to a non-steroidal agonist” (Bioorg Med Chem Lett, 2008)", "key": {"Glucocorticoid receptor [1]": {"molecular_target": "T1, Glucocorticoid receptor (Homo sapiens, UniProt P04150)", "T1 sequence (P04150 whole entry)": "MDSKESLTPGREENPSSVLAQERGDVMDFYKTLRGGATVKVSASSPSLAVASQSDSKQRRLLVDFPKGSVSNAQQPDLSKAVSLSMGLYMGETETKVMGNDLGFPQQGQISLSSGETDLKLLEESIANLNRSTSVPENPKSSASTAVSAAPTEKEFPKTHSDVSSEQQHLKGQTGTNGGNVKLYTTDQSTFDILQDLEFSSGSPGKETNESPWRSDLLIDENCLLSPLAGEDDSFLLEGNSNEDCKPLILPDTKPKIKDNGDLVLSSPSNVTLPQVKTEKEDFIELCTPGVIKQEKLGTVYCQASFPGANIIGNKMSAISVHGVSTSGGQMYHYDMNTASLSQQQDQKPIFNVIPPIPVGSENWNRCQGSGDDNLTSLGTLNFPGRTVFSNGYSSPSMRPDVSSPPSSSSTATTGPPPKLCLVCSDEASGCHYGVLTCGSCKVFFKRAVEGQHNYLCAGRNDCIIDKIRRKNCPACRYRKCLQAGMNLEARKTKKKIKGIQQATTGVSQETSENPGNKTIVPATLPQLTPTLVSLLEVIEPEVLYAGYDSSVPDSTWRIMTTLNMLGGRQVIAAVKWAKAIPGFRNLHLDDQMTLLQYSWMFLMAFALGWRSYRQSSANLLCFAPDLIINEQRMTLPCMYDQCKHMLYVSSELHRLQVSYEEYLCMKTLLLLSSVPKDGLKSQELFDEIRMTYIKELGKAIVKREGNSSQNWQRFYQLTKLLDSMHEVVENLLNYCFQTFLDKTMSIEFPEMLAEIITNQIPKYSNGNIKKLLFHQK", "experiment": "Binding affinity to glucocorticoid receptor"}, "Glucocorticoid receptor [2]": {"molecular_target": "T1, Glucocorticoid receptor", "experiment": "Agonist activity at glucocorticoid receptor by MMTV transactivation assay", "type": "functional"}, "Androgen receptor": {"molecular_target": "T2, Androgen receptor (Homo sapiens, UniProt P10275)", "T2 sequence (P10275 whole entry)": "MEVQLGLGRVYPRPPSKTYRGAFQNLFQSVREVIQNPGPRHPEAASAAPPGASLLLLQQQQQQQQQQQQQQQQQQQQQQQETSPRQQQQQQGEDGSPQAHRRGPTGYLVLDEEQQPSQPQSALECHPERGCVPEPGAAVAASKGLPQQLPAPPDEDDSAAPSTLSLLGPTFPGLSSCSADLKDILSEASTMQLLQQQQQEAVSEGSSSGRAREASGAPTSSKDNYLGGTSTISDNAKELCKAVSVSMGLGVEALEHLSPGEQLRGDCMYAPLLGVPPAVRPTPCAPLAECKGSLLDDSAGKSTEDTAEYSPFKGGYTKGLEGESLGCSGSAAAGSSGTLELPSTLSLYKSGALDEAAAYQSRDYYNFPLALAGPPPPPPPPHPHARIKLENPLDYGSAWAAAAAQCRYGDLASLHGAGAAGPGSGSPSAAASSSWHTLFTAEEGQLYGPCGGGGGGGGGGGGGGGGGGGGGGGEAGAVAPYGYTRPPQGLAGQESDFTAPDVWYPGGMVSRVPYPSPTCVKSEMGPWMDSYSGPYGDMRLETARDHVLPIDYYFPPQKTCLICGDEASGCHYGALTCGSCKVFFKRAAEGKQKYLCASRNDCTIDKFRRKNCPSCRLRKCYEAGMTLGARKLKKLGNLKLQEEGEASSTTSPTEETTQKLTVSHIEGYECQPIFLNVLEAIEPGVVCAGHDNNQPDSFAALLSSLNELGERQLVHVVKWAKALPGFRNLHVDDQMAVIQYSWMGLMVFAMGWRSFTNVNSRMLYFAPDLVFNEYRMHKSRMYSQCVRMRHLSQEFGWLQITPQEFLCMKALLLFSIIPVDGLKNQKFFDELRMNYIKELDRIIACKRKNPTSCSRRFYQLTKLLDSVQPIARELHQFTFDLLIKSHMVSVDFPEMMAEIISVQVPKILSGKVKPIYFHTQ", "experiment": "Binding affinity to androgen receptor"}, "Progesterone receptor": {"molecular_target": "T3, Progesterone receptor (Homo sapiens, UniProt P06401)", "T3 sequence (P06401 whole entry)": "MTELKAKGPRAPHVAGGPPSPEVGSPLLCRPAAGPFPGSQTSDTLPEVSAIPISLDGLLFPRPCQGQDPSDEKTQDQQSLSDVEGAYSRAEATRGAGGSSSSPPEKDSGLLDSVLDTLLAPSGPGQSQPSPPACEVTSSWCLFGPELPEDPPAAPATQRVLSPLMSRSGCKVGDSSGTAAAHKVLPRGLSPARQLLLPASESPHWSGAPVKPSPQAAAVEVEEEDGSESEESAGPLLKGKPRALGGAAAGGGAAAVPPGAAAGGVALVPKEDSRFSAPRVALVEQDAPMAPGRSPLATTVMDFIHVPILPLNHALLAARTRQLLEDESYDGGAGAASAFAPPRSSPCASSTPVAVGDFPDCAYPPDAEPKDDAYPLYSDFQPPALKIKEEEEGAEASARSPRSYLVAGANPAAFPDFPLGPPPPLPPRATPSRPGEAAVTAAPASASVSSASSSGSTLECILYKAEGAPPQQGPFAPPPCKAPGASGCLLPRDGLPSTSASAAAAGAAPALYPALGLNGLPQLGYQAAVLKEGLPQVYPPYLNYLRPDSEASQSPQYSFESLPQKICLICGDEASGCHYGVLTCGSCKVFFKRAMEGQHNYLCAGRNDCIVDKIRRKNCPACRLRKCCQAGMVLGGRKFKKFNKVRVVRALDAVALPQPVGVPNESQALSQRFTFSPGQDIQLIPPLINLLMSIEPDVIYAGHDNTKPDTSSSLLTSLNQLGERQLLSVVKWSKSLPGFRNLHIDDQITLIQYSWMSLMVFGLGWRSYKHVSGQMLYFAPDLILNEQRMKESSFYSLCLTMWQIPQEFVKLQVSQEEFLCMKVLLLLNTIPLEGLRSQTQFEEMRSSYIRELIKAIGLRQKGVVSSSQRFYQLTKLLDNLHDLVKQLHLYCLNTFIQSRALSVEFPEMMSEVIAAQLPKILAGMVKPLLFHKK", "experiment": "Binding affinity to progesterone receptor"}, "[3]": {"molecular_target": "T4, Mineralocorticoid receptor (Homo sapiens, UniProt P08235)", "T4 sequence (P08235 whole entry)": "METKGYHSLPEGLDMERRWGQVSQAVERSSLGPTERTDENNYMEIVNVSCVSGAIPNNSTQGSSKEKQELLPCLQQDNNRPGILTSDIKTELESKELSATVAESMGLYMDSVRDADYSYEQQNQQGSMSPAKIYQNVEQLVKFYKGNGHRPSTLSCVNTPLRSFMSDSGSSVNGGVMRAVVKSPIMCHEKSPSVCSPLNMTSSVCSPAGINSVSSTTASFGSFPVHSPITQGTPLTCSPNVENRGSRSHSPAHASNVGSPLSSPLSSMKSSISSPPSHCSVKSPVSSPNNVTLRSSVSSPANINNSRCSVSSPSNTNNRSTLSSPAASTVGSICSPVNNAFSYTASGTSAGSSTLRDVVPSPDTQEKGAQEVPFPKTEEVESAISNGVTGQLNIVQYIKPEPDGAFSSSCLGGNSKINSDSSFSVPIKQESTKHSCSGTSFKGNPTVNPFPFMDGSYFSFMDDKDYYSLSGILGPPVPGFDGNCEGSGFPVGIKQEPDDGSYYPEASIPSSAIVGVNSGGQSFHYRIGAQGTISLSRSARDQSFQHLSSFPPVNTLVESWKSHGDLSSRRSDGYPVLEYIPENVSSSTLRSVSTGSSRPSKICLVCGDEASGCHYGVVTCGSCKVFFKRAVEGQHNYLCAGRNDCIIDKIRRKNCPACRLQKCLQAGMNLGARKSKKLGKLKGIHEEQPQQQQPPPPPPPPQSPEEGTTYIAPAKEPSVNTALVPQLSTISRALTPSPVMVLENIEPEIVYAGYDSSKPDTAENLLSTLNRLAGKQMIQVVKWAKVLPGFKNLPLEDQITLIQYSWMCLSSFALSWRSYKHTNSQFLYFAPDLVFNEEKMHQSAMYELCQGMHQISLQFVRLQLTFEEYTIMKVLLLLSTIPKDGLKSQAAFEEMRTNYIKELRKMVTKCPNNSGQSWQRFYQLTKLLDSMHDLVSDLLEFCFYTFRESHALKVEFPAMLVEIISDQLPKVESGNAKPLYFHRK", "experiment": "Binding affinity to mineralocorticoid receptor"}}, "data": [{"smiles": "CCN(C[C@](O)(CNC(=O)c1cnn(-c2ccc(F)cc2)c1N)C(F)(F)F)C(=O)c1c(Cl)cccc1Cl", "values": [{"measurement": "IC50", "setting": "Glucocorticoid receptor [1]", "value": 3.16, "unit": "nM"}, {"measurement": "EC50", "setting": "Glucocorticoid receptor [2]", "value": 2, "unit": "nM"}, {"measurement": "EC50", "setting": "Androgen receptor", "value": "> 10000", "unit": "nM"}, {"measurement": "EC50", "setting": "Progesterone receptor", "value": "> 10000", "unit": "nM"}, {"measurement": "EC50", "setting": "[3]", "value": "> 10000", "unit": "nM"}]}]}
